The format of data set [1] is physicochemical. The conditions noted are these: for Colloid radius ±SD / CAC (critical aggregation concentration): DLS; for CAC (critical aggregation concentration): 50 mM KPi pH 7.0, 1% DMSO.
In data set [2] the target is T1, MDH (malate dehydrogenase, from porcine heart) (Sus scrofa, UniProt P00346).
T1 sequence (P00346 25-338): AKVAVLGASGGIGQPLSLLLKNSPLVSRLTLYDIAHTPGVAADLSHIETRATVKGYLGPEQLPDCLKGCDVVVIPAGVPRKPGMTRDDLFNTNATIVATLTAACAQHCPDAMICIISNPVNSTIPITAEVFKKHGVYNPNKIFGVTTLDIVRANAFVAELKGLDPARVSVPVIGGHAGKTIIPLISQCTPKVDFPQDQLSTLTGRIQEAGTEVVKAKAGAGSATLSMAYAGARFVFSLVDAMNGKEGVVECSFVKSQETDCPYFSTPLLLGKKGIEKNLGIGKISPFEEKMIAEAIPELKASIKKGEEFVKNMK
The data set is described as follows: MDH inhibition counter screen with or without 0.01% Triton X-100. The format is biochemical. The conditions noted are these: for Hill slope of MDH inhibition: in the absence of detergent; for Effect of 0.01% Triton X-100 detergent on MDH inhibition/activity: addition of 0.01% Triton X-100. (The purpose of a counterscreen is to sort out artefacts and off-target activity.)

For a further data set, the target named is 3CL-Pro (Severe acute respiratory syndrome coronavirus 2, UniProt P0DTD1). Description: 3CL-Pro kinetics inhibition assay in the presence of 0.05% Tween-20. The format is biochemical, SARS-CoV-2. The conditions noted are these: 0.05% Tween-20 versus literature IC50.
The target of another data set is AmpC β-lactamase (Escherichia coli, UniProt P00811). Description: AmpC β-lactamase counter screen with or without 0.01% Triton X-100. The format is biochemical.
Another data set deals with T2, MDH (Sus scrofa, UniProt P00346).
T2 sequence (P00346 25-338): T1 sequence (P00346 25-338)
The data set is described as follows: Colloid centrifugation followed by MDH inhibition of supernatant. The data set is classed as biochemical, porcine. The conditions noted are these: 14,000 rpm, 1 h, 4 °C; supernatant tested.

Usually IC50 stands for the point on the concentration scale where inhibition reaches its midpoint.

Like-named read-outs stand apart in the source and are kept apart here.

AmpC β-lactamase, sequence (P00811 20-377): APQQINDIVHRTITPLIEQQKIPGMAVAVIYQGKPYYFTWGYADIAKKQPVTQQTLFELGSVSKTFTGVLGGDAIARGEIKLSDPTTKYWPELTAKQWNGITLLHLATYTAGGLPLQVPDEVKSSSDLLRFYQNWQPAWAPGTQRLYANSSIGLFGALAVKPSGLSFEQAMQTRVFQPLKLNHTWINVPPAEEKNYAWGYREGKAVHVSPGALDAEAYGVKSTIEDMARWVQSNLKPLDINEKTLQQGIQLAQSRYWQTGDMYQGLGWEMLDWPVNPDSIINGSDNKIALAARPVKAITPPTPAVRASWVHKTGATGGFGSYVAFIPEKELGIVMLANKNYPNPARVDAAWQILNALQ

`O=C1c2c(O)cccc2Cc2cccc(O)c21` [Anthralin]: the “Colloid radius ±SD” value in data set [1] (literature hits) was found to be 1014 ± 53 nm. On the same count and under the same terms, for `C/C(=C\c1ccc(C(=O)O)cc1)c1ccc2c(c1)C(C)(C)CCC2(C)C` [TTNPB] the value was 72 ± 3 nm.

For Hemin, the “Hill slope of MDH inhibition” value in data set [2] was 1.3–1.4. Also, the “Reduction of 3CL-Pro potency in presence of detergent versus literature value” at 3CL-Pro is listed as 2.6 fold. Moreover, in data set [1] (literature hits), the “CAC (critical aggregation concentration)” value was 13 µM and the “Colloid radius ±SD” value was 84 ± 0.9 nm. Besides, the “AmpC enzyme activity on addition of 0.01% (v/v) Triton X-100” value at AmpC β-lactamase (at 25 μM hemin) is listed as “fully restored enzyme activity”. Moreover, the IC50 at AmpC β-lactamase (read-out: AmpC IC50, no detergent) amounted to 23 µM. Consider `Cc1cc(O)c2c(=O)c3c(O)cc(O)c4c5c(O)cc(O)c6c(=O)c7c(O)cc(C)c8c1c2c(c34)c(c78)c65` [Hypericin], for which, in data set [1] (literature hits), the “Colloid radius ±SD” value worked out at 143 ± 6 nm. Consider `Cc1cc(-c2ccc(/N=N/c3ccc4c(S(=O)(=O)[O-])cc(S(=O)(=O)[O-])c(N)c4c3O)c(C)c2)ccc1/N=N/c1ccc2c(S(=O)(=O)[O-])cc(S(=O)(=O)[O-])c(N)c2c1O.[Na+].[Na+].[Na+].[Na+]` [Evans Blue], for which the “Particles by DLS” value in data set [1] is given as “did not show particles by DLS”. The “MDH enzyme activity after centrifugation of compound” value on MDH is on record as “enzyme activity was restored after centrifugation”. On to `Clc1ccccc1C(c1ccccc1)(c1ccccc1)n1ccnc1` [Clotrimazole], for which, in data set [1] (literature hits), the “Colloid radius ±SD” value is given as 283 ± 15 nm. In the case of `CC(C)=CC[C@@H](O)C1=CC(=O)c2c(O)ccc(O)c2C1=O` [Shikonin], the “Hill slope of MDH inhibition” value in data set [2] is 1.3–1.4. Moreover, the “Colloid radius ±SD” value in data set [1] (literature hits) came out at 169 ± 9 nm. As for `COC(=O)C1=C(C)NC(C)=C(C(=O)OC(C)(C)CN(C)CCC(c2ccccc2)c2ccccc2)C1c1cccc([N+](=O)[O-])c1` (stereo not drawn) [Lercanidipine], in data set [2], the “Effect of 0.01% Triton X-100 detergent on MDH inhibition/activity” value is listed as “MDH activity is restored” and the “Hill slope of MDH inhibition” value was found to be 2.9. In addition, the “Colloid radius ±SD” value in data set [1] (literature hits) is on record as 853 ± 147 nm. Also, the “Increase in DLS scattering intensity (Cnts/sec) on particle formation” value in data set [1] (aqueous buffer) is recorded as 10 fold. On to `O=C(O)c1ccc(N2C(=O)/C(=C\c3ccc(-c4ccc([N+](=O)[O-])cc4)o3)C=C2c2ccccc2)cc1` [4E1RCat], for which the “Reduction of 3CL-Pro potency in presence of detergent versus literature value” at 3CL-Pro is recorded as “fivefold”. Further, in data set [1] (literature hits), the “CAC (critical aggregation concentration)” value amounted to 6.6 µM and the “Colloid radius ±SD” value came out at 102 ± 8 nm. `COc1c2ccc(-c3ccccc3)oc-2cc(=O)c1C` [Dracorhodin]: in data set [1] (drugs from repurposing library), the “Colloid radius ±SD” value came out at 101 ± 22 nm.

For `c1ccc(-c2ccc(C(c3ccccc3)n3ccnc3)cc2)cc1` (stereo not drawn) [Bifonazole], the “Colloid radius ±SD” value in data set [1] (drugs from repurposing library) turned out to be 184 ± 80 nm. Turning to `O=C1C=C2CC3(O)COc4c(ccc(O)c4O)C3=C2C=C1O` (stereo not drawn) [Hematein], the “Colloid radius ±SD” value in data set [1] (literature hits) was 64 ± 1 nm. `C[C@@H](NCCCc1cccc(C(F)(F)F)c1)c1cccc2ccccc12` [Cinacalcet]: the “Colloid radius ±SD” value in data set [1] (literature hits) is listed as 77 ± 4 nm. As for tannic acid, the “Effect of 0.01% Triton X-100 detergent on MDH inhibition/activity” value in data set [2] is recorded as “cannot be reversed by detergent”. Consider `O=c1c(O)c(-c2cc(O)c(O)c(O)c2)oc2cc(O)cc(O)c12` [Myricetin], for which, in data set [1] (literature hits), the “Colloid radius ±SD” value was determined as 100 ± 4 nm. For the molecule `O=C(O)c1cccc(CN2C(=O)/C(=C(\c3ccccc3)c3ccc(Cl)cc3)c3ccccc32)c1` [YLF-466D], the “Colloid radius ±SD” value in data set [1] (literature hits) came out at 40 ± 0.4 nm. On the same count and under the same terms, for `Cc1cc(O)c2c(c1)C(=O)c1cc(O)cc(O)c1C2=O` [Emodin] the value was 58 ± 17 nm.

Turning to `Oc1c(I)cc(Cl)c2cccnc12` [Clioquinol], in data set [1] (literature hits), the “Colloid radius ±SD” value is reported as 1818 ± 177 nm. For `Cc1cc2c(C(C)C)c(O)c(O)c(C=O)c2c(O)c1-c1c(C)cc2c(C(C)C)c(O)c(O)c(C=O)c2c1O` [Gossypol], in data set [1] (literature hits), the “Colloid radius ±SD” value was 70 ± 6 nm. For the molecule `COc1ccc(-c2ccc3cc(C(=O)O)ccc3c2)cc1C12CC3CC(CC(C3)C1)C2` [Adapalene], in data set [1] (drugs from repurposing library), the “Colloid radius ±SD” value was 422 ± 65 nm. Regarding `COC(=O)C1=C(C)NC(C)=C(C(=O)OCCN2CCN(C(c3ccccc3)c3ccccc3)CC2)C1c1cccc([N+](=O)[O-])c1` (stereo not drawn) [Manidipine], the “Colloid radius ±SD” value in data set [1] (literature hits) is reported as 929 ± 75 nm. For the molecule `Cc1c(C)c2c(c(C)c1O)CCC(C)(CCCC(C)CCCC(C)CCCC(C)C)O2` (stereo not drawn) [Alpha-Tochopherol], the “Colloid radius ±SD” value in data set [1] (drugs from repurposing library) is 466 ± 5.6 nm. The same measure, in the same setting: next, `CC(C)(C)[C@H]1CC[C@H](CC2=C(O)C(=O)c3ccccc3C2=O)CC1` [Buparvaquone]: 186 ± 15 nm.

On to `Brc1c(Br)c(Br)c2[nH]nnc2c1Br` [TBB], for which the “Particles by DLS” value in data set [1] is “did not show particles by DLS”. In addition, at MDH, the “MDH enzyme activity after centrifugation of compound” value is on record as “enzyme activity was restored after centrifugation”.

For the molecule `O=C1CCc2ccc(OCCCCN3CCN(c4cccc(Cl)c4Cl)CC3)cc2N1` [Aripiprazole], the “Colloid radius ±SD” value in data set [1] (literature hits) is listed as 222 ± 5. nm. As to `Cc1c(-c2ccc(O)cc2)n(Cc2ccc(OCCN3CCCCCC3)cc2)c2ccc(O)cc12` [Bazedoxifene], the “Colloid radius ±SD” value in data set [1] (drugs from repurposing library) is recorded as 2822 ± 814 nm.

These data come from publication PMC8665103 (Journal of medicinal chemistry, 2021).
